{
  "source": "patent US8449864B2",
  "about": "(The Board of Trustees of the Leland Stanford Junior …, priority 2006, dated 2013)",
  "key": {"[1]": {"test_system": "PLCs containing PMCs", "test": "NT degradation by peritoneal lavage cells (PLCs) containing peritoneal mast cells", "type": "cell-based, mouse", "conditions": "BAPTA-AM 50 mM pre-treatment; NT 10 μM, 30 min at 37° C.", "experimental": "FIG. 5. Neurolysin and carboxypeptidase inhibitors prevent NT degradation by peritoneal mast cells. Kit^+/+ PLCs containing 5×10^4 PMCs were pre-treated for 15 min at 37° C. with one of the following protease inhibitors: chymostatin (chym, chymase inhibitor at 100 μM), CFp-Ala-Ala-Phe-pAB (CFp, […] at 10 μM only for PLCs), potato carboxypeptidase inhibitor (PCI, carboxypeptidase inhibitor at 10 μg/ml) and phosphodiepryl 03 (p03, neurolysin inhibitor at 100 nM for PLCs. Cells were then incubated with NT (10 μM) for 30 min at 37° C. Results are the percentage of NT remaining after incubation with cells compared to the starting concentration of NT (n=4-9 per group).\nFIG. 12. (a), PLCs containing 1×10^4 PMCs obtained from either wild type C57BL/6 mice, Ntsr1-deficient (Ntsr1^−/−) mice or Ntsr2-deficient (Ntsr2^−/−) mice were incubated for 2 h with ^3H-5-hydroxytryptamine (3H-serotonin) at 37° C. and stimulated for 15 min at 37° C. with either ET-1 (4 μM) or NT (10 μM). (b), PLCs containing 1×10^4 PMCs obtained from C57BL/6 mice were incubated for 2 h with ^3H-serotonin and stimulated for 15 min with either ET-1 (4 μM) or NT (10 μM). In a separate set of experiments, cells were pre-incubated with BAPTA-AM (Sigma) ([…], 15 min at […]) before the addition of the stimuli. Results are mean ±SEM of 3 experiments. (c), mMC-CPA activity was measured in supernatants obtained from Kit^+/+ PLCs containing 5×10^4 PMCs that were stimulated for 30 min at 37° C. with either ET-1 (4 μM) or NT (10 μM). (d), PLCs containing 5×10^4 PMCs from C57BL/6J mice were pre-treated for 15 min at 37° C. with BAPTA-AM ([…], a Ca^2+ chelator that can reduce MC degranulation) and then incubated with NT (10 μM) for 30 min at 37° C. Results are expressed as the percentage of NT remaining after incubation with cells compared to that in samples of NT incubated in vehicle alone at 37° C. (data were pooled from triplicate determinations in two independent experiments that gave similar results). (e), Expression of mRNA for NT-receptors in the AtT20 neuroendocrine cell line, the mast cell line C1.MC/C57.1, C57BL/6J BMCMCs, Kit^+/+ BMCMCs and peritoneal mast cells purified from Kit^+/+ mice (PMCs).\nNT, ET-1, C-reactive protein, and TNF measurements. Concentrations of NT, C-reactive protein, ET-1 and TNF were measured by ELISA (Bachem Peninsula Labs for NT; Biomedica, Vienna for C-reactive protein and ET-1; BD Biosciences for TNF). […] The detection limits for the ELISA kits were: 24 fmol/ml (NT), 0.048 fmol/ml (ET-1), 0.124 ng/ml (C-reactive protein) and […] (human TNF)."}, "[2]": {"test_system": "PMCs", "test": "3H-serotonin release from peritoneal mast cells", "type": "cell-based, mouse", "conditions": "BAPTA-AM, 30 min; ET-1 4 μM", "text": "Results are mean ±SEM of 3 experiments. […] (data were pooled from triplicate determinations in two independent experiments that gave similar results)."}, "[3]": {"test_system": "NTR1", "conditions": "cited from earlier work"}, "[4]": {"molecular_target": "NTR2 (Homo sapiens, UniProt O95665)", "sequence (O95665 whole entry, species assumed)": "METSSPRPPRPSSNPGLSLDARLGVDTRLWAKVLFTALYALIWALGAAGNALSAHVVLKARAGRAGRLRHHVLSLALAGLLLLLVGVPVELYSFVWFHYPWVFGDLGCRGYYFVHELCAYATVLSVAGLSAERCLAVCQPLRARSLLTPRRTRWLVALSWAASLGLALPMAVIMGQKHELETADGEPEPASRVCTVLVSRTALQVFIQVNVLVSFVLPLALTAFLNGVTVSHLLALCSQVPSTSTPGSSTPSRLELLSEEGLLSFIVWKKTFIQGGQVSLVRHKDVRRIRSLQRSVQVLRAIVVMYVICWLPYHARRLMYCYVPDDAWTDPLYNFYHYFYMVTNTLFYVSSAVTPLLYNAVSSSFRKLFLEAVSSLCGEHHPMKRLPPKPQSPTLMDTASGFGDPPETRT", "conditions": "cited from earlier work"}, "[5]": {"test_system": "mMC-CPA", "test": "shRNA knock-down of mMC-CPA protein in BMCMCs (Western blot)", "type": "cell-based, mouse", "conditions": "Kit+/+ BMCMCs, lentiviral shRNA", "source_text": "(§1) FIG. 9. Use of shRNA approach to knock-down NLN and mMC-CPA in BMCMCs. Protein expression for: (a), NLN and (b), mMC-CPA; and (c), mMC-CPA activity in Kit^+/+ BMCMCs treated with either empty vector or shRNAs. (d), mMCP-4 and mMCP-5 protein expression in Kit^+/+ BMCMCs treated with empty vector, NLN-shRNA or mMC-CPA-shRNA.\nLentiviral vector production. pLentiLox 3.7 (pLL3.7), a vector engineered to co-express enhanced green fluorescent protein (GFP) as a reporter gene, that permits infected cells to be tracked by flow cytometry, was digested with Xhol and Hpal and the annealed oligos (SEQ ID NO. 3) 5′-t-[…]-ttcaagaga-[…]-ttttttc-3′ and (SEQ ID NO. 4) 5′-tcgagaaaaaa-[…]-tctcttgaa-[…]-a-3′ for mMC-CPA and (SEQ ID NO. 5) 5′-t-[…]-ttcaagaga-[…]-ttttttc-3′ (SEQ ID NO. 6) 5′-tcgagaaaaaa-[…]-tctcttgaa-[…]-a-3′ for NLN were ligated into pLL3.7 to yield a directed shRNA-producing vector. The 19 nt target sequences are indicated in capitals in the oligonucleotide sequence. Active viral stocks were created and concentrated as previously described. Briefly, 293T cells were transfected with the transfer vector plasmid pLL3.7-mMC-CPA or pLL3.7-NLN or pLL3.7 (empty vector), the VSV-G envelope-encoding plasmid pMD.G, and the packaging plasmid CMVΔR8.74 using the calcium phosphate method. […]"}, "[6]": {"test_system": "mMC-CPA", "test": "CPA enzymatic activity in shRNA-transduced BMCMCs", "type": "cell-based, mouse", "experimental": "as §1\nCPA enzymatic activity assay. CPA enzymatic activity was assessed by measuring reduction of absorbance of a chromogenic substrate (N-[4-Methoxyphenylazoformyl]-Phe-OH) (Bachem Peninsula Labs) specific for CPA as previously described."}, "[7]": {"test_system": "Kit+/+ BMCMCs", "test": "NT degradation by A23187-activated shRNA-transduced BMCMCs", "type": "cell-based, mouse", "conditions": "A23187 5 μM; NT 10 μM, 30 min at 37° C.", "experimental": "FIG. 8. MC-associated neurolysin (NLN) contributes to the MCs' ability to reduce NT-induced hypotension. (a) Identification of NLN in the membrane and cytosol fractions of C1.MC/C57.1 MCs and C57BL/6J BMCMCs. (b) Degradation of NT (10 μM) by membrane and cytosol preparations obtained from Kit^+/+ BMCMCs (2×10^6 cells/preparation) that were pre-treated with either vehicle or with Pro-Ile (10 μM, 15 min at […]). Results are expressed as the percentage of NT remaining after incubation with membrane or cytosol preparations compared to that in samples of NT incubated in vehicle alone (n=3). […] Results are expressed as the percentage of NT remaining in the samples compared to that in samples of NT incubated in vehicle alone at 37° C. […] (e) Changes in MAP versus baseline levels (=“0”, measured 3 min after injection of 300 μl saline, i.p.) at various times after injection of NT (6 nmol in 300 μl saline, i.p.) in Kit^W/W-v mice which had been engrafted i.p. with Kit^+/+ BMCMCs treated with either empty vector (empty vector MCs→Kit^W/W-v), NLN-shRNA (NLN-shRNA MCs→Kit^W/W-v) or mMC-CPA-shRNA (mMC-CPA-shRNA MCs→Kit^W/W-v). […]\nNT, ET-1, C-reactive protein, and TNF measurements. Concentrations of NT, C-reactive protein, ET-1 and TNF were measured by ELISA (Bachem Peninsula Labs for NT; Biomedica, Vienna for C-reactive protein and ET-1; BD Biosciences for TNF). […]"}, "[8]": {"test_system": "Kit+/+ BMCMCs", "test": "Beta-hexosaminidase release of BMCMCs upon FcεRI cross-linking", "type": "cell-based, mouse", "conditions": "vs empty vector-treated cells", "experimental": "FIG. 10. BMCMCs treated with shRNAs degranulate after high affinity Fc receptor for IgE (FcεRI) cross-linking to the same extent than BMCMCs treated with empty vector. Beta-hexosaminidase release by Kit^+/+ BMCMCs treated with empty vector, NLN-shRNA for NLN or mMC-CPA-shRNA. Cells (1.25×10^5) were sensitized with IgE mAb to dinitro-phenol (DNP, 2 μg/ml) overnight at 37° C. and then were challenged with DNP-human serum albumin (DNP-HSA, 10 ng/ml) for 30 min at 37° C.\nBeta-hexosaminidase release. Beta-hexosaminidase was measured on an enzyme-linked immunosorbent assay “reader” that detects the hydrolysis product of p-nitrophenyl-N-acetyl-b-D-glucosamine (Sigma) used as a substrate."}},
  "data": [
    {"molecule": "CC(=O)OCOC(=O)CN(CC(=O)OCOC(C)=O)c1ccccc1OCCOc1ccccc1N(CC(=O)OCOC(C)=O)CC(=O)OCOC(C)=O", "note": "[BAPTA-AM]", "values": [
      {"measurement": "ability of PMCs to degrade NT", "setting": "[1]", "value": "did not reduce the ability of PMCs to degrade NT"},
      {"measurement": "ET-1-induced PMC serotonin release", "setting": "[2]", "value": "markedly inhibited"}
    ]},
    {"molecule": "COc1cccc(OC)c1-c1cc(C(=O)NC2(C(=O)O)C3CC4CC(C3)CC2C4)nn1-c1ccc(C(=O)N(C)CCCN(C)C)cc1C(C)C", "note": "(stereo not drawn) [SR142948A]", "values": [
      {"measurement": "affinity for NTR1 relative to SR48692", "setting": "[3]", "value": "higher affinity for NTR1 than SR48692"},
      {"measurement": "affinity for NTR1", "setting": "[3]; different tissues and cells from various species", "value": "nanomolar affinity"},
      {"measurement": "affinity for NTR2", "setting": "[4]", "value": "nanomolar affinity"}
    ]},
    {"molecule": "mMC-CPA-shRNA: lentivirus-delivered short hairpin RNA silencing mMC-CPA, SEQ ID NO. 3/4 (nucleic acid) chain 1: TGAAACAGTTTGATGTGAAATTCAAGAGATTTCACATCAAACTGTTTCTTTTTTC chain 2: TCGAGAAAAAAGAAACAGTTTGATGTGAAATCTCTTGAATTTCACATCAAACTGTTTCA", "values": [
      {"measurement": "reduction in mMC-CPA protein expression level", "setting": "[5]", "value": 90, "unit": "%"},
      {"measurement": "mMC-CPA enzymatic activity", "setting": "[6]", "value": "substantially reduced"},
      {"measurement": "ability to degrade NT after activation with A23187", "setting": "[7]", "value": "significantly reduced ability to degrade NT"},
      {"measurement": "degranulation upon FcεRI cross-linking", "setting": "[8]", "value": "degranulated to the same extent"}
    ]}
  ]
}
